Patent US10945992B1, “Dosage forms of rofecoxib and related methods” (Tremeau Pharmaceuticals, Inc., priority 2019, dated 2021)
Where two headings read alike, the source gives them in different places.

Test: TRM-201-PK-102 single-dose four-period crossover pharmacokinetic study, fasted healthy subjects
Type: in vivo, human
Conditions: human, plasma, oral
Protocol: A Single-Dose, Open-Label, Phase 1, Four-Period Crossover Pharmacokinetic Study of TRM-201 (Rofecoxib) 12.5 mg, 17.5 mg, 20 mg and 25 mg Administered to Healthy Subjects in a Fasting State, with Comparison to Historical Pharmacokinetic Parameters of Previously Marketed Rofecoxib (“TRM-201-PK-102” or “102 PK Study”)
This was a single-center, open-label four-period crossover PK study of TRM-201. The study included 24 subjects who received TRM-201 as a single dose of 12.5 mg, 17.5 mg, 20 mg and 25 mg to assess the PK of TRM-201 in healthy volunteers under fasted conditions. Subjects were randomized to one of four treatment sequences. The PK data from the current study along with the data from the TRM-201-PK-101 study (Example 4) was used to compare to historical pharmacokinetic parameters of previously marketed rofecoxib, all in a fasted state.
In each of the four dosing periods, subjects fasted overnight for at least 10 hours before study drug dosing. While fasting, subjects had nothing to eat and only water to drink. Water was permitted as desired, except for the period between 1 hour before and 1 hour after study drug dosing (excepting as permitted for dosing). After the 2-hour PK blood sample, subjects were allowed one 250-mL cup of clear apple juice. After the 4-hour PK blood sample, subjects were served a light lunch. Following the light lunch, subjects received standardized meals according to the clinic's standard procedures that were scheduled at consistent times and at least 15 minutes before or 15 minutes after PK sampling time points. Blood was withdrawn for PK analysis at predefined time points. For each dosing period the last time point was 120 hours after dosing with study drug (Day 6). After the 120 hour PK sample, the EOP procedures was completed, subjects remained in-clinic for the in-between dose period day (Days 7, 14, and 21) and began the next dosing period starting with an overnight fast for at least 10 hours on Day −1 of the subsequent dosing period. Pharmacokinetic and safety endpoints were evaluated.
The study drug, TRM-201, was an immediate-release tablet that contained 12.5 mg rofecoxib, 17.5 mg rofecoxib, 20 mg rofecoxib or 25 mg rofecoxib. The 7.25-mm diameter tablets were off-white, round, and uncoated with no markings. TRM-201 tablets were for oral administration.
For each sample, approximately 3 mL of blood were drawn. The samples were obtained by a straight stick or via an in-dwelling intravenous (IV) catheter in a forearm vein. Additional details for the collection, processing, storage, and shipping of PK samples were provided in the study manual.
Pharmacokinetic samples will be analyzed using a validated assay for rofecoxib in human plasma. Assay results and validation details will be provided in a separate bioanalytical report. The following PK parameters for rofecoxib will be calculated as primary endpoints using standard noncompartmental methods: AUC0-∞ and Cmax. Secondary endpoints include Tmax, and t1/2. Additional PK parameters (e.g., CL/F, and Vd/F) will also be calculated using standard noncompartmental methods.
Individual plasma concentrations for rofecoxib and PK sampling time deviation data will be presented in a data listing. Plasma concentration data will be summarized by time point using the following descriptive statistics: number of subjects, arithmetic mean, SD, coefficient of variation (CV), geometric mean, natural-log-scale SD, geometric CV, median, minimum, and maximum. Individual plasma concentration versus actual time profiles were presented on both linear and semilogarithmic scales. Additionally, arithmetic mean concentration versus scheduled time profiles were presented on linear scales and geometric means on semilogarithmic scales.
The PK parameters of rofecoxib were analyzed based on the actual sampling times. […]

[1] = 20 mg, read-out: arithmetic mean plasma concentration
[2] = 20 mg, read-out: geometric mean plasma concentration

## CS(=O)(=O)c1ccc(C2=C(c3ccccc3)C(=O)OC2)cc1 [TRM-201, 4-[4-(methylsulfonyl)phenyl]-3-phenyl-2(5H)-furanone]
20 mg, 102 study only, read-out: arithmetic mean AUC0-∞
  AUC(0-inf): 3750 ng·h/mL
20 mg, 102 study only, read-out: arithmetic mean Cmax
  Cmax: 277 ng/mL
20 mg, 102 study only, read-out: geometric mean AUC0-∞
  AUC(0-inf): 3550 ng·h/mL
20 mg, 102 study only, read-out: geometric mean Cmax
  Cmax: 259 ng/mL
20 mg, 102 study, 18-40 years, read-out: arithmetic mean AUC0-∞
  AUC(0-inf): 3580 ng·h/mL
20 mg, 102 study, 18-40 years, read-out: arithmetic mean Cmax
  Cmax: 308 ng/mL
20 mg, 102 study, 18-40 years, read-out: geometric mean AUC0-∞
  AUC(0-inf): 3420 ng·h/mL
20 mg, 102 study, 18-40 years, read-out: geometric mean Cmax
  Cmax: 289 ng/mL
20 mg, 102 study, 41-52 years, read-out: arithmetic mean AUC0-∞
  AUC(0-inf): 3730 ng·h/mL
20 mg, 102 study, 41-52 years, read-out: arithmetic mean Cmax
  Cmax: 262 ng/mL
20 mg, 102 study, 41-52 years, read-out: geometric mean AUC0-∞
  AUC(0-inf): 3360 ng·h/mL
20 mg, 102 study, 41-52 years, read-out: geometric mean Cmax
  Cmax: 242 ng/mL
20 mg, 102 study, 53-60 years, read-out: arithmetic mean AUC0-∞
  AUC(0-inf): 3940 ng·h/mL
20 mg, 102 study, 53-60 years, read-out: arithmetic mean Cmax
  Cmax: 260 ng/mL
20 mg, 102 study, 53-60 years, read-out: geometric mean AUC0-∞
  AUC(0-inf): 3880 ng·h/mL
20 mg, 102 study, 53-60 years, read-out: geometric mean Cmax
  Cmax: 249 ng/mL
20 mg, 102 study, Black or African-American subjects, read-out: arithmetic mean AUC0-∞
  AUC(0-inf): 3380 ng·h/mL
20 mg, 102 study, Black or African-American subjects, read-out: arithmetic mean Cmax
  Cmax: 298 ng/mL
20 mg, 102 study, Black or African-American subjects, read-out: geometric mean AUC0-∞
  AUC(0-inf): 3300 ng·h/mL
20 mg, 102 study, Black or African-American subjects, read-out: geometric mean Cmax
  Cmax: 295 ng/mL
20 mg, 102 study, Hispanic or Latino subjects, read-out: arithmetic mean AUC0-∞
  AUC(0-inf): 3840 ng·h/mL
20 mg, 102 study, Hispanic or Latino subjects, read-out: arithmetic mean Cmax
  Cmax: 281 ng/mL
20 mg, 102 study, Hispanic or Latino subjects, read-out: geometric mean AUC0-∞
  AUC(0-inf): 3630 ng·h/mL
20 mg, 102 study, Hispanic or Latino subjects, read-out: geometric mean Cmax
  Cmax: 258 ng/mL
20 mg, 102 study, White subjects, read-out: arithmetic mean AUC0-∞
  AUC(0-inf): 3850 ng·h/mL
20 mg, 102 study, White subjects, read-out: arithmetic mean Cmax
  Cmax: 271 ng/mL
20 mg, 102 study, White subjects, read-out: geometric mean AUC0-∞
  AUC(0-inf): 3610 ng·h/mL
20 mg, 102 study, White subjects, read-out: geometric mean Cmax
  Cmax: 250 ng/mL
20 mg, 102 study, body weight 47-70 kg, read-out: arithmetic mean AUC0-∞
  AUC(0-inf): 3650 ng·h/mL
20 mg, 102 study, body weight 47-70 kg, read-out: arithmetic mean Cmax
  Cmax: 336 ng/mL
20 mg, 102 study, body weight 47-70 kg, read-out: geometric mean AUC0-∞
  AUC(0-inf): 3340 ng·h/mL
20 mg, 102 study, body weight 47-70 kg, read-out: geometric mean Cmax
  Cmax: 307 ng/mL
20 mg, 102 study, body weight 70.1-77 kg, read-out: arithmetic mean AUC0-∞
  AUC(0-inf): 4500 ng·h/mL
20 mg, 102 study, body weight 70.1-77 kg, read-out: arithmetic mean Cmax
  Cmax: 259 ng/mL
20 mg, 102 study, body weight 70.1-77 kg, read-out: geometric mean AUC0-∞
  AUC(0-inf): 4400 ng·h/mL
20 mg, 102 study, body weight 70.1-77 kg, read-out: geometric mean Cmax
  Cmax: 248 ng/mL
20 mg, 102 study, body weight 77.1-90 kg, read-out: arithmetic mean AUC0-∞
  AUC(0-inf): 3250 ng·h/mL
20 mg, 102 study, body weight 77.1-90 kg, read-out: arithmetic mean Cmax
  Cmax: 238 ng/mL
20 mg, 102 study, body weight 77.1-90 kg, read-out: geometric mean AUC0-∞
  AUC(0-inf): 3170 ng·h/mL
20 mg, 102 study, body weight 77.1-90 kg, read-out: geometric mean Cmax
  Cmax: 231 ng/mL
20 mg, 102 study, non-Hispanic or non-Latino subjects, read-out: arithmetic mean AUC0-∞
  AUC(0-inf): 3660 ng·h/mL
20 mg, 102 study, non-Hispanic or non-Latino subjects, read-out: arithmetic mean Cmax
  Cmax: 272 ng/mL
20 mg, 102 study, non-Hispanic or non-Latino subjects, read-out: geometric mean AUC0-∞
  AUC(0-inf): 3470 ng·h/mL
20 mg, 102 study, non-Hispanic or non-Latino subjects, read-out: geometric mean Cmax
  Cmax: 260 ng/mL
[1]
  concentration at 15 minutes: 5.75 ng/mL
  concentration at 45 minutes: 121 ng/mL
[2]
  concentration at 15 minutes: 1.16 ng/mL
  concentration at 45 minutes: 72.6 ng/mL
25 mg, 102 study only, read-out: arithmetic mean AUC0-∞
  AUC(0-inf): 4630 ng·h/mL
25 mg, 102 study only, read-out: arithmetic mean Cmax
  Cmax: 349 ng/mL
25 mg, 102 study only, read-out: geometric mean AUC0-∞
  AUC(0-inf): 4490 ng·h/mL
25 mg, 102 study only, read-out: geometric mean Cmax
  Cmax: 341 ng/mL
25 mg, 102 study, 18-40 years, read-out: arithmetic mean AUC0-∞
  AUC(0-inf): 4140 ng·h/mL
25 mg, 102 study, 18-40 years, read-out: arithmetic mean Cmax
  Cmax: 366 ng/mL
25 mg, 102 study, 18-40 years, read-out: geometric mean AUC0-∞
  AUC(0-inf): 4050 ng·h/mL
25 mg, 102 study, 18-40 years, read-out: geometric mean Cmax
  Cmax: 356 ng/mL
25 mg, 102 study, 41-52 years, read-out: arithmetic mean AUC0-∞
  AUC(0-inf): 4810 ng·h/mL
